How the values were obtained:
[1] = water solubility of the isolated product; format: physicochemical; conditions: isolated white powder
[2] = pH of the isolated product; format: physicochemical; conditions: isolated white powder

| water solubility [1] | pH [2] | Structure (SMILES) |
| --- | --- | --- |
| water-soluble | 6.4 | C=CC1CCN(Sc2cc3c(N(C)c4ccc(CC)cc4)ncnc3c(C)c2OCCC)CC1 [Compound V-1] |
| water-soluble | 6.4 | C=CC1CCN(C(=O)Oc2cc3c(N(C)c4ccc(CC)cc4)ncnc3c(C)c2OCC)CC1 [II-1] |
| water-soluble | 6.4 | C#CC1CCN(Nc2c(OC)cc3ncnc(N(C)c4ccc(C)cc4)c3c2CC)CC1 [III-1] |
